{"source": "patent US7534558B2", "about": "“In vitro diagnostic test for enterovirus infections” (Universite de Lille 2 Droit Et Sante, priority 2003, dated 2009)", "key": {"[1]": {"tested_on": "CVB4E2/plasma induced IFNα production by PBMCs", "test": "CVB4E2/plasma induced IFNα production by PBMCs (DELFIA)", "assay_type": "cell-based, human", "description": "VP4, H antigen or mock proteins were preincubated for 1 h at 37° C. at different concentrations with plasma from 5 healthy subjects diluted at optimal dilution (1/10 or 1/100 ). CVB3 or CVB4 were then added for 1 hour before incubating with PBMCs. […] On the contrary, the mock proteins isolated from non-infected Hep-2 cells have non effect on the IFNα production.\nPBMCs separated from whole heparinated blood are distributed into microwells (plate of 96 wells), at the rate of 5 to 8.10^5 cell in 100 μl of supplemented RPMI medium by well. The infection of PBMC is made with a final volume of 100 μl of preparation in each well. After incubation for 48 h at 37° C. under a 5% CO2 atmosphere and 90% humidity, the supernatant is harvested and used immediately for IFNα dosage, or clarified by centrifugation for 10 minutes at 180×g and stored at −80° C. until dosage of the produced IFNα.\nThe concentration of the produced IFNα is determined with a sensitive and specific technique, the DELFIA method (Dissociation Enhanced Lanthanide FluoroImmmoAssay) (Rönnblom and al 1997).\nThe dosage of IFNα is performed following the DELFIA principle (Dissociation Enhanced Lanthanide FluoroImmunoAssay), based on a immunofluorescence in retarded phase method using antibodies binding IFNα of which one is labelled with europium. The use of an activation solution will release the europium conjugated with antibodies and emit a fluorescence proportional to the amount of produced IFNα and measured with a fluorometer (fluorometer LKB Wallac 1230 ARCOSO®, Turku, Finlande).\nMonoclonal anti-IFNα antibodies LT 273 (5.4 mg/ml) and LT 293 (4.8 mg/ml) supplied by Dr Gunar Alm (Uppsala, Sweden) are coated to the bottom of the wells after an incubation for 12 hours at room temperature. These plates can be stored in a buffer at 4° C. or are used immediately. Standard samples of human IFNα are prepared with an “irrelevant” monoclonal mouse antibody IgG1 in order to establish the reference curve (10 measurements). The other samples to be analysed are added to each well (100 μl) with the dilution buffer and the “irrelevant” antibodies and incubated for 2 hours with gentle stirring at room temperature. The wells are washed 3 times with the washing solution. The antibody conjugated to europium (200 μl) is added to each well, left to incubate for 1 hour at room temperature with gentle stirring. The plate is washed 6 times with a washing solution. The activation solution (200 μl), added immediately after washing and left for 20 to 30 minutes for incubation in the well, causes a cleavage of the europium bound to the antibody fixed to IFNα, emitting a fluorescence measured with the fluorescence reader (LKB Wallac 1230 ARCUS®). The IFNα concentration will be calculated from the values of the measured fluorescence by means of the Graphpad program (San Diego, USA). The detection threshold of IFNα is of 0.5 IU/ml.\nThe plasma from a healthy donor (optimal dilution 1/10th or 1/100th) is pre-incubated for 1 hour at 37° C. with the recombinant VP4 protein of CVB4E2 (optimal concentration at 1 μg/ml). The whole is incubated again for one hour at 37° C. in the presence of the CVB4E2 virus (dilutions at 1/10th or 1/100th; viral titer at 10^13 TCID50/ml) then applied to the PBMCs, (5.10^5/well) to incubate for 48 hours.\nIn the same way, the plasma preparation preincubated for 1 hour and VP4 of CVB3 are incubated for 1 hour with CVB4E2 before infecting the PBMCs for 48 hours and determinating the amount of the produced IFNα.\nThe virus (CVB4E2 or CVB3) infected PBMCs in the presence of plasma are deemed to be positive controls of this experimentation. The negative controls are obtained with one well of PBMC alone, one well of virus CVB4B2 alone and one well of CVB3 alone.\nThe CVB4E2 induced IFNα production in cultures of PBMCs previously incubated in the presence of plasma from healthy subjects was measured. […]"}, "[2]": {"tested_on": "anti-VP4 antibodies in plasmas or serums", "test": "ELISA of plasmas/serums on wells coated with VP4 protein or VP4 peptides", "assay_type": "binding, human", "details": "diluted 1/50, antigen coated at 5 μg/ml, 490 nm", "description": "40 plasmas from non diabetic patients and 40 plasmas or serums from diabetic patients were assayed.\nThe VP4 protein or the 5 VP4 peptides, diluted at 5 μg/ml in PBS buffer pH=7.4, are coated in the wells of a microplate of 96 wells (FluoroMunc, MaxiSorp surface, NUNC, Danemark) at the rate of 100 μl/well. The plates are incubated for 1 hour at 37° C. under humid atmosphere, then left for 24 h at room temperature. After 3 washings with PBS buffer, the wells are saturated with 300 μl of saturation buffer for 1 hour at 37° C. under humid atmosphere, before washing 3 times with the washing buffer. Then 250 μl of post-coating buffer are added to each well and the plates are incubated for 24 h at room temperature, then stored at 4° C. until use.\nThe wells coated with the VP4 protein or the different peptides VP4 are washed 3 times with washing buffer in order to remove the post-coating solution. Then 100 μl of the plasmas or serums diluted to 1/50th in dilution buffer are added to different wells and the plates are incubated for 1 hour at 37° C. under humid atmosphere. Simultaneously, a negative control well containing 100 μl of dilution buffer is carried out. Then the wells are washed 3 times with the washing solution and 100 μl of secondary antibody solution are added to each well. After incubation for 1 h at 37° C. under humid atmosphere, the wells are washed 5 times with the washing solution and 100 μl of substrate solution are added to each well. The plates are incubated for 30 minutes at room temperature and in the dark. The coloured reaction is stopped by addition of 25 μl of H2SO4 2M (1M) per well and the plates are read in a plate reader at a wavelength of 490 nm.\nODs obtained for each serum with the VP4 protein and the different peptides VP4 were divided by the OD obtained with the negative control. The following Tables show the mean +/− standard deviation of the rates of OD obtained with the two series of assayed serums (Patient=diabetic patients, Control=not diabetic). (see FIGS. 8 à 10)"}}}
{"substance": "recombinant VP4 protein: recombinant VP4 protein of CVB4E2, made in E. coli as MBP-VP4 fusion and cleaved by Factor Xa", "values": [{"measurement": "IFNα production", "setting": "[1]; CVB4E2 infection of PBMCs, healthy donor plasma preincubated 1 h with the VP4 protein before CVB4E2, 48 h, positive control 148 IU/ml", "result": 8.5, "unit": "IU/ml"}, {"measurement": "IFNα production in the presence of CVB4E2", "setting": "[1]; plasma 1/10 preincubated 1 h with VP4 recombinant protein of CVB4E2 diluted 1/10", "result": "collapsed"}, {"measurement": "IFNα production", "setting": "[1]; protein at 0.01 μg/mL preincubated with plasma, then CVB4E2 (m.o.i. 1), PBMCs 48 h, mean +/- SD, three donors", "result": "189.5+/−21.6 IU/mL"}, {"measurement": "IFNα production", "setting": "[1]; protein at 0.1 μg/ml preincubated with plasma, then CVB4E2 (m.o.i. 1), PBMCs 48 h, mean +/- SD, three donors", "result": "104.7+/−4.5 IU/mL"}, {"measurement": "IFNα production", "setting": "[1]; protein at 1 μg/ml preincubated with plasma, then CVB4E2 (m.o.i. 1), PBMCs 48 h, mean +/- SD, three donors", "result": "44.1+/−24.3 IU/mL"}, {"measurement": "IFNα production", "setting": "[1]; protein at 10 μg/ml preincubated with plasma, then CVB4E2 (m.o.i. 1), PBMCs 48 h, mean +/- SD, three donors", "result": "15.3+/−7.9 IU/mL"}, {"measurement": "Mean value of OD ratio (OD / OD of negative control), ELISA", "setting": "[2]; Control = 40 serums of non diabetic patients", "result": 0.695}, {"measurement": "Mean value of OD ratio (OD / OD of negative control), ELISA", "setting": "[2]; Patient = 40 serums of diabetic patients", "result": 2.119}]}
